For experiment [1], the system named is RBL-2H3 cells. The experiment can be described thus: Calcium ionophore A23187-induced RBL-2H3 degranulation (β-hexosaminidase release). The format is cell-based, rat. Conditions: Rattus norvegicus, RBL-2H3; 5 µM; maximal inhibition, mean±SEM; read-out: Degranulation inhibition (%) A23187 (decrease of β-hexosaminidase release). The protocol: RBL-2H3 cells were seeded at 3.0×10^5 cells/mL in 24-wells plate (1 mL/well), and assayed after 24h at near-confluent stage (∼90%). Two different degranulation stimuli were used: calcium ionophore A23187 500 ng/mL (1 µM) and an immunologic stimulus (100 ng/mL IgE anti-DNP followed by 100 ng/mL DNP-BSA) that we refer to as IgE/antigen (Fig. 2). Both stimuli induced degranulation, which was quantified by β-hexosaminidase and histamine release. With IgE/antigen, β-hexosaminidase release (p-nitrophenolate absorbance) increased by 65.4±6.8% above basal (n = 16; P<0.001), whereas histamine increased from the basal value of 0.156±0.151 µM towards 0.521±0.186 µM (n = 10; P<0.05). With A23187, β-hexosaminidase release increased by 187±18.9% above basal (n = 12; P<0.001), whereas histamine increased towards 2.43±0.330 µM (n = 12; P<0.001). Thus, the ability of naphthoquinones to reduce β-hexosaminidase release was quantified for both stimuli, whereas effects upon histamine were only quantified with the A23187 stimulus, given the low histamine release and poor signal to noise achieved with IgE/antigen.
Before treatment with A23187, cells were incubated with individual naphthoquinones during 15 min, at 37°C. After that, A23187 1 µM was added and cells incubated for 30 min, at 37°C (Fig. 2B). Compounds were freshly diluted prior to cell exposure using EBSS supplemented with 0.1% BSA [21]. β-hexosaminidase and histamine release was quantified in supernatants, whereas the MTT cell viability assay was performed on adherent cells.
The release of β-hexosaminidase from stimulated-RBL-2H3 cells was measured as previously described. In a 96-wells plate, 50 µl of substrate solution [p-nitrophenyl N-acetyl-D-glucosamine 1.3 mg/ml in citrate buffer (pH 4.5)] were added to 30 µl of supernatant. The plate was incubated at 37°C, during 1 h. The reaction was stopped by the addition of 80 µl of NaOH 0.5 M and the reaction product, p-nitrophenolate, was measured spectrophotometrically at 405 nm, in a microplate reader (Multiskan ASCENT Thermo®).

In experiment [2] the test system is leukotriene production. On the set-up: method as in PMID 20460770. To be noted: by inhibiting 5-lipoxygenase translocation to the nuclear membrane; cited from earlier work.
Experiment [3] relates to RBL-2H3 cells. The experiment can be described thus: IgE/antigen-induced RBL-2H3 basophils' degranulation (β-hexosaminidase release). To be noted: Rattus norvegicus, RBL-2H3; 5 µM; maximal inhibition, mean±SEM; read-out: Degranulation inhibition (%) IgE/antigen (decrease of β-hexosaminidase release). The format is cell-based, rat. The protocol:
RBL-2H3 cells were seeded at 3.0×10^5 cells/mL in 24-wells plate (1 mL/well), and assayed after 24h at near-confluent stage (∼90%). Two different degranulation stimuli were used: calcium ionophore A23187 500 ng/mL (1 µM) and an immunologic stimulus (100 ng/mL IgE anti-DNP followed by 100 ng/mL DNP-BSA) that we refer to as IgE/antigen (Fig. 2). […] Thus, the ability of naphthoquinones to reduce β-hexosaminidase release was quantified for both stimuli, whereas effects upon histamine were only quantified with the A23187 stimulus, given the low histamine release and poor signal to noise achieved with IgE/antigen.
When the IgE/antigen was used as stimulus, cells were incubated during 16 h with 100 ng/ml IgE anti-DNP and with individual naphthoquinones diluted in culture medium. After washing twice with Dulbecco's phosphate buffered saline (DPBS), cells were treated for 1 h, at 37°C, with 100 ng/ml DNP-BSA and with individual naphthoquinones diluted in EBSS supplemented with 0.1% BSA (Fig. 2A). After treatments, supernatants were collected in order to quantify released β-hexosaminidase and released histamine, while cell viability assay was performed on adherent cells.
The release of β-hexosaminidase from stimulated-RBL-2H3 cells was measured as previously described. In a 96-wells plate, 50 µl of substrate solution [p-nitrophenyl N-acetyl-D-glucosamine 1.3 mg/ml in citrate buffer (pH 4.5)] were added to 30 µl of supernatant. The plate was incubated at 37°C, during 1 h.

For experiment [4], the system named is hyaluronidase from bovine tests (type IV-S; EC 3.2.1.35). The experiment can be described thus: Hyaluronidase inhibition, cell-free (Morgan-Elson). Type of experiment: biochemical. To be noted: 100 µM; maximal inhibition, mean±SEM. The method, then: The reaction product, N-acetyl-sugar, was quantified according Morgan-Elson colour reaction with minor modifications. The Morgan-Elson reaction was started by addition of 25 µl disodium tetraborate 0.8 M and subsequent heating in a boiling water bath during 3 min. After cooling, 750 µl p-dimethylaminobenzaldehyde (DMAB) was added and the reaction mixture was incubated at 37°C for 20 min. […] The measurement was made spectrophotometrically, at 560 nm, in a microplate reader (Multiskan ASCENT Thermo®), [24]. Sodium cromoglycate was used as a positive control for inhibition.

For experiment [5], the system named is prostaglandin H2 (PGH2) synthase. On the set-up: method as in PMID 2495300. Conditions: via ROS production; read-out: IC50 for inhibition of prostaglandin H2 (PGH2) synthase; cited from earlier work.
The target in experiment [6] is T1, soybean lipoxidase (Glycine max, UniProt P08170).
T1 construct: purchased Sigma-Aldrich (St. Louis, MO, USA) type V-S; host or cells: soybean (plant preparation)
T1 sequence (P08170 1-839): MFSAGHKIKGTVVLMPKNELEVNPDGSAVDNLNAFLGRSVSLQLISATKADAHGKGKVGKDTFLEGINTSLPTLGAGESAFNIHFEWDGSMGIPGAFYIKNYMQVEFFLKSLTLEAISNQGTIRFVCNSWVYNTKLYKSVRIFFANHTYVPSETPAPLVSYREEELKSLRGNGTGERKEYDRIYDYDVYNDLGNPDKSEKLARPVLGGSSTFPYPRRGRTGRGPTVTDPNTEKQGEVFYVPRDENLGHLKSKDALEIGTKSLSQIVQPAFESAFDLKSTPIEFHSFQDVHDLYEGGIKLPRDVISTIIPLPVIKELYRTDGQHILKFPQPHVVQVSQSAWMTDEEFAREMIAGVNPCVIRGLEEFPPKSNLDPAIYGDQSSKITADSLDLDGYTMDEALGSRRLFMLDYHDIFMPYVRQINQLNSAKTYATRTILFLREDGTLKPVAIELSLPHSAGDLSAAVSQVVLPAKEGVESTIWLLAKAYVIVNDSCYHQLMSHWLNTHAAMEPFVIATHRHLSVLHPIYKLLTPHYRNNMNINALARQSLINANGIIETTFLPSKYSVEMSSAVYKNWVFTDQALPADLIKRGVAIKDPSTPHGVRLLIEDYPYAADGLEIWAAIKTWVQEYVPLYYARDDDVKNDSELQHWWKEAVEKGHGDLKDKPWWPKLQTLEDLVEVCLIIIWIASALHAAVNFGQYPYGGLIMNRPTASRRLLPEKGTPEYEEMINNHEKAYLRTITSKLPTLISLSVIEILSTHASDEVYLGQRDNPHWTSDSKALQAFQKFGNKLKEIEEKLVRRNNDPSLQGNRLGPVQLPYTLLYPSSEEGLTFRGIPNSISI
The experiment can be described thus: Soybean lipoxidase inhibition, cell-free. To be noted: mean±SEM. The format is biochemical, Glicine max (L.) Merr. The protocol: Lipoxidase catalyses the oxidation of linoleic acid to the conjugated diene, 13-hydroperoxy linoleic acid, which was measured spectrophotometrically at 234 nm on a UV/visible spectrophotometer (UNICAM Helios α). The blank was measured in a reaction mixture with 20 µl of individual naphthoquinones solution, 1 ml of phosphate buffer (pH 9) and 20 µl of soybean lipoxidase 500 U. After 5 min pre-incubation at room temperature, the reaction was started by addition of 50 µl of substrate (linoleic acid) at 2 mM in ethanol. The reaction time was 3 min.

The test system of experiment [7] is leukotriene C4 production. The experiment can be described thus: Leukotriene C4 production in IgE/antigen-stimulated RBL-2H3 cells (EIA). The format is cell-based, rat.

Structures are written as SMILES. Bounds are passed on as bounds.

In the case of `CC1=CC(=O)c2ccccc2C1=O` [Menadione, menadione], the inhibition at 5 µM in experiment [1] and in experiment [3] was less than 15% each time. For the same compound, the “Concentrations reported to reduce leukotriene production” value in experiment [2] is 50 to 200 µM. In addition, the “Hyaluronidase inhibition (%)” value in experiment [4] was 23.8±6.06 (100 µM) %. Further, the IC50 in experiment [5] was 5 µM; in experiment [6] (cell-free assay), 128 ± 9.38 µM; in experiment [7] (Rattus norvegicus, RBL-2H3, IgE/antigen evoked release, read-out: IC50 for decrease of LTC4 levels), 0.34 ± 0.018 µM. Further, the inhibition at 183.5 µM in experiment [6] (183.5 µM, maximal inhibition) stood at 83.4 ± 6.8%. The “Effect on leukotriene (LT) C4 levels evoked by IgE/antigen (in words)” value in experiment [7] (5 nM (lowest concentration tested)) is listed as “strongly decreased LTC4 levels”; in experiment [7] (5 µM) it was “full inhibition”; in experiment [7] (5 µM, listed as menadione), “completely abrogated”.

As usually defined, the IC50 is the concentration that inhibits the measured activity by half.

The record behind these values is publication PMC3938571, “Modulation of Basophils' Degranulation and Allergy-Related Enzymes by Monomeric and Dimeric Naphthoquinones” (PLoS ONE, 2014).
